This note sets out measurements from US20250236901A1, “METHOD OF DETECTING A MICROORGANISM HAVING HIPPURICASE ACTIVITY” (BIOSYNTH AG, priority 2022, published 2025).

Common to all, as to format: cell-based
The test system of assay [1] is Streptococcus pyogenes ATCC®19615. The assay is described as follows: Detection of hippuricase activity with 4-HHA, 4-aminoantipyrine and oxidizing reagent. To be noted: Example 6; OD600 0.5-0.6; 10 mM 4-HHA; HRP/H2O2, HRP/Glu/GOD or NaIO4. How it is done: (§1) Streptococcus agalactiae ATCC®12386 and Streptococcus pyogenes ATCC®19615 were cultivated on Columbia Agar with sheep blood (Thermofischer PB5039A) at 37° C. for 48 h.
(§2) Biomass of colonies were suspended in sterile 100 mM phosphate buffer pH 7.4 and the optical density OD600 was set to 0.5-0.6.
(§3) Two hundred μL of cell suspensions were mixed with 25 μL of 100 mM 4-hydroxyhippuric acid (4-HHA, Bachem 4005059) prepared in 100 mM phosphate buffer pH adjusted to 7.4) in a microtiter plate and incubated for 80 min. at 37° C. After incubation, 20 μL of the prepared mixture (12.5×) 4-aminoantipyrine (4-AAP, Merck 06800) and horseradish peroxidase (HRP, Merck 77332), 5 μL of 100 mM H2O2 were added. The absorbance at 505 nm was recorded with a plate reader (SpektraMax M5, Molecular Devices) at room temperature and endpoint of absorbance at 505 nm was evaluated (FIG. 8A). Final concentrations for the assay were 10 mM 4-HHA, 0.5 mM 4-AAP, 4.5 U/mL HRP and 2 mM H2O2.
(§4) Two hundred μL of cell suspension were mixed with 25 μL of 100 mM 4-hydroxyhippuric acid (4-HHA, Bachem 4005059, dissolved in 100 mM phosphate puffer pH 7.4) in microtiter plate and incubated for 1 h at 37° C. […] The absorbance at 505 nm was recorded with a plate reader and endpoint of absorbance at 505 nm was evaluated (FIG. 8B). […]

The subject of assay [2] is Streptococcus agalactiae ATCC®12386. The assay is described as above. The note with it: Example 6; OD600 0.5-0.6; 10 mM 4-HHA; HRP/H2O2, HRP/Glu/GOD or NaIO4. The method, then:
as §1, §2, §3, §4

Assay [3] has as its system Campylobacter jejuni DSM 4688. As to the kind of experiment: Detection of hippuricase activity with 4-HHA, 4-aminoantipyrine and oxidizing reagent (color / absorbance at 505 nm). The note with it: for time to plateau of absorbance at 505 nm: HRP/H2O2. How it is done: (§5) Campylobacter jejuni DSM 4688 (C. j., catalase positive), Eschericha coli (E. coli, catalase positive) and Campylobacter coli DSM 4689 (C. c., catalase positive), Streptococcus agalactiae ATCC®12386 (S. a., catalase negative) and Streptococcus pyogenes ATCC®19615 (S. p., catalase negative) were cultivated on Columbia Agar with sheep blood (Thermofischer PB5039A) at 37° C. for 48 h, both Campylobacter strains were cultivated under microaerophilic atmosphere (Oxoid, Campylgen CN0025A).
(§6) Biomass of colonies were suspended in sterile phosphate buffer (100 mM, pH 7.4) and the optical density OD was determined and set to OD600 of 0.9.
(§7) Two hundred μL of cell suspensions were mixed with 25 μL of 4-hydroxyhippuric acid (4-HHA, Bachem, 4005059) stock solution, prepared in 100 mM phosphate buffer pH adjusted to 7.4 in a microtiter plate (SpektraMax M5, Molecular Devices) and incubated for 70 minutes at 37° C. After incubation, 20 μL of a prepared mixture (12.5×) 4-aminoantipyrine (4-AAP, Merck 06800) and peroxidase (HRP, Merck 77332) and 5 μL of 100 mM H2O2 were added. The absorbance at 505 nm was recorded with a plate reader at room temperature. Final concentrations for the assay were 5 mM, 10 mM and 20 mM 4-HHA, 0.5 mM 4-AAP, 4.5 U/mL HRP and 2 mM H2O2.
(§8) Biomass of colonies were suspended in sterile 100 mM phosphate buffer pH 7.4 and the optical density OD600 was set to 0.9 and then serially diluted with the same buffer to an OD600 of 0.5, 0.2 and 0.1.
(§9) Two hundred μL of cell suspensions were mixed with 25 μL of 100 mM 4-hydroxyhippuric acid (4-HHA, Bachem 4005059) prepared in 100 mM phosphate buffer pH adjusted to 7.4) in a microtiter plate and incubated for 1 h at 37° C. After incubation, 20 μL of the prepared mixture (12.5×) 4-aminoantipyrine (4-AAP, Merck 06800) and peroxidase (HRP, Merck 77332), 5 μL of 100 mM H2O2 were added. The absorbance at 505 nm was recorded with a plate reader (SpektraMax M5, Molecular Devices) at room temperature. Final concentrations for the assay were 10 mM 4-HHA, 0.5 mM 4-AAP, 4.5 U/mL HRP and 2 mM H2O2.
(§10) Biomass of colonies were suspended in sterile phosphate buffer (100 mM, pH 7.4) and the optical density OD was set to 0.9 and then serially diluted with the same buffer to an OD600 of 0.5, 0.2 and 0.1.
(§11) Two hundred μL of cell suspension were mixed with 25 μL of 100 mM 4-hydroxyhippuric acid (4-HHA, Bachem 4005059, dissolved in 100 mM phosphate puffer pH 7.4) in microtiter plate and incubated for 1 h at 37° C. After incubation, 10 μL of the prepared mixture (25×) 4-aminoantipyrine (4-AAP, Merck 06800) and peroxidase (HRP, Merck 77332), 10 μL of 250 mM glucose (Merck, G8270) and 5 μL of glucose oxidase (GOD, Merck G2133) 50 U/mL were added. The absorbance at 505 nm was recorded with a plate reader. Final concentration of 4-HHA was 10 mM, 4-AAP was 0.5 mM, HRP was 4.5 U/mL, glucose was 10 mM and GOD was 1 U/mL.
Biomass of colonies were suspended, a) 0.2 mL sterile 100 mM phosphate buffer pH 7.4; b) 0.1 mL sterile water (as recommended in manual), c) 0.5 mL saline solution (as recommended in manual). To ensure a proper comparability, the optical density OD600 of all cell suspensions were set to 0.2. In method a) 25 μL of 100 mM 4-hydroxyhippuric acid (4-HHA, Bachem 4005059 prepared in 100 mM phosphate buffer pH adjusted to 7.4) was added to cell suspensions. In methods b) and c), Hippurate disks and Hippurate strips were dropped in cell suspensions as recommended in manual. To ensure a proper comparability, all samples were incubated at 37° C. for 1 h.
After incubation, 10 μL of the prepared mixture (25×) 4-aminoantipyrine (4-AAP, Merck 06800) and peroxidase (HRP, Merck 77332), followed with 5 μL of 100 mM H2O2 were added in samples of method a). Final concentrations for the assay were 10 mM 4-HHA, 0.5 mM 4-AAP, 4.5 U/mL HRP and 2 mM H2O2.

The next assay relates to Eschericha coli. As to the kind of experiment: Detection of hippuricase activity with 4-HHA, 4-aminoantipyrine, HRP and H2O2. The note with it: Example 1; OD600 0.9; 5, 10, 20 mM 4-HHA, 70 min 37° C.; 0.5 mM 4-AAP, 4.5 U/mL HRP, 2 mM H2O2. How it is done: as §5, §6, §7
Assay [4] concerns Campylobacter coli DSM 4689. The assay is described as follows: Detection of hippuricase activity with 4-HHA, 4-aminoantipyrine and oxidizing reagent (color / absorbance at 505 nm). How it is done:
as §5, §6, §7, §8, §9, §10, §11
Biomass of colonies were suspended, a) 0.2 mL sterile 100 mM phosphate buffer pH 7.4; b) 0.1 mL sterile water (as recommended in manual), c) 0.5 mL saline solution (as recommended in manual). To ensure a proper comparability, the optical density OD600 of all cell suspensions were set to 0.2. In method a) 25 μL of 100 mM 4-hydroxyhippuric acid (4-HHA, Bachem 4005059 prepared in 100 mM phosphate buffer pH adjusted to 7.4) was added to cell suspensions. In methods b) and c), Hippurate disks and Hippurate strips were dropped in cell suspensions as recommended in manual. […]

For assay [5], the system named is catalase-positive samples (Campylobacter). As to the kind of experiment: Catalase control experiment: chromogenic reaction of p-hydroxybenzoic acid with 4-AAP/HRP/H2O2 in presence of cells. The note with it: 1 mM 4-HBA, 0.5 mM 4-AAP, 4.5 U/mL HRP, 1 mM H2O2; OD600 0.4 to 0.5; FIG. 2B, FIG. 9. The method, then: In a catalase control experiment, biomass of colonies was suspended in sterile phosphate buffer (100 mM, pH 7.4) and the optical density OD was determined and then serially diluted with the same buffer to an OD600 of 0.4 to 0.5.
One hundred to 150 μL of cell suspension were mixed with 50 to 100 μL of 100 mM phosphate puffer pH 7.4 and 50 μL of the prepared mixture (5×) 4-aminoantipyrine (4-AAP, Merck 06800, 2.5 mM), peroxidase (HRP, Merck 77332, 22.5 U/mL) and 4-hydroxybenzoic acid (4-HBA, Merck H20059, 5 mM, dissolved in 100 mM phosphate puffer pH 7.4) and 5 μL of 50 mM H2O2 were added. The absorbance at 505 nm was recorded with a plate reader (SpektraMax M5, Molecular Devices) at room temperature. Final concentrations for the assay are 1 mM 4-HBA, 0.5 mM 4-AAP, 4.5 U/mL HRP and 1 mM H2O2. (FIG. 2B)
Two hundred μL of cell suspension were mixed with 20 μL of 100 mM phosphate puffer pH 7.4, 5 μL 50 mM and p-4-hydroxybenzoic acid (p-HBA, Merck H20059 dissolved in 100 mM phosphate puffer pH 7.4), 20 μL of mixture 4-aminoantipyridine (Merck 06800, 6.25 mM) and horseradish peroxidase (Merck 77332, 56.3 U/mL), followed by the addition of 5 μL of 50 mM H2O2. The absorbance at 505 nm was recorded with a plate reader (SpektraMax M5, Molecular Devices) at room temperature. Final concentrations for the assay are 1 mM p-4-HBA, 0.5 mM 4-AAP, 4.5 U/mL HRP and 1 mM H2O2. (FIG. 9)

Where [6] appears, read: Example 1, OD600 0.9, 5, 10, 20 mM 4-HHA, 70 min 37° C., 0.5 mM 4-AAP, 4.5 U/mL HRP, 2 mM H2O2.

Consider `O=C(O)CNC(=O)c1ccc(O)cc1` [4-HHA, p-hydroxyhippuric acid], for which the color of sample entry in assay [1] is reported as “colorless or slightly yellowish”; in assay [2] it was “pink color”; in assay [3] (setting [6]) it was “robust red to pink color”; in assay [3] (Example 2, OD600 0.1 to 0.9, 10 mM 4-HHA 1 h 37° C., HRP/2 mM H2O2), “robust red to pink color”; in assay [3] (Example 3, OD600 0.1 to 0.9, 10 mM 4-HHA 1 h 37° C., HRP, 10 mM glucose, 1 U/mL GOD) it was “robust red to pink color”; in assay [3] (Example 4 method a), OD600 0.2, 10 mM 4-HHA 1 h 37° C., HRP/2 mM H2O2, few minutes at room temperature), “significant pink color”. For the same compound, the color of sample entry is on record as “red to pink color” in assay [3] (Example 5, OD600 0.1 to 1.1, 10 mM 4-HHA 1 h 37° C., 2 mM 4-AAP, 2 mM NaIO4); “colorless or slightly yellowish” in the assay on Eschericha coli; “colorless or slightly yellowish” in assay [4] (setting [6]); “colorless or slightly yellowish” in assay [4] (Example 2, all OD600 values 0.1 to 0.9, 10 mM 4-HHA 1 h 37° C., HRP/2 mM H2O2); “colorless or slightly yellowish” in assay [4] (Example 3, all OD600 values, 10 mM 4-HHA 1 h 37° C., HRP, 10 mM glucose, 1 U/mL GOD); “slightly yellowish” in assay [4] (Example 4 method a), OD600 0.2, 10 mM 4-HHA 1 h 37° C., HRP/2 mM H2O2). For the same compound, in assay [4] (Example 5, all OD600 values, 10 mM 4-HHA 1 h 37° C., 2 mM 4-AAP, 2 mM NaIO4), the color of sample entry is reported as “colorless or slightly yellowish”. In addition, the “time to plateau of absorbance at 505 nm” value was “about 5 minutes” in assay [3] (Example 1, FIG. 2A, OD600 0.9) and “about 10 minutes” in assay [3] (Example 2, FIG. 3, OD600 value of 0.1).

In the case of `O=C(O)c1ccc(O)cc1` [p-hydroxybenzoic acid], the “time after which the chromogenic reaction stopped (absorbance at 505 nm)” value in assay [5] was “about 5 minutes”.
